Values joined by “and” are separate entries in the source; they are usually repeats but may differ in a detail not shown here. Equal entries are not always repeated. Inconclusive results and toxic doses are left out. Rule for the calls: active = survival T/C of 150% or more; inactive = T/C below 125% in these data.
Tested on: P388 leukemia ip, CD2F1 mice, survival T/C
Test: NCI In Vivo Anticancer Drug Screen. Data for tumor model P388 Leukemia (intraperitoneal) in CD2F1 (CDF1) mice
Conditions: endpoint: median survival time, higher = longer survival
Outline: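 Mice carrying the transplanted tumor received test compound or vehicle. Survival was recorded in each group, and the value is the treated-group measurement divided by that of the vehicle-treated control group.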

[1] = dose: 100.0 mg/kg/injection, schedule: Q04DX003 (ip), vehicle: saline with Tween-80
[2] = dose: 200.0 mg/kg/injection, schedule: Q04DX003 (ip), vehicle: saline with Tween-80
[3] = dose: 200.0 mg/kg/injection, schedule: Q01DX009 (ip), vehicle: Klucel (hydroxypropylcellulose) (HPC)
[4] = dose: 100.0 mg/kg/injection, schedule: Q01DX001 (ip), vehicle: saline with Tween-80
[5] = dose: 200.0 mg/kg/injection, schedule: Q01DX001 (ip), vehicle: saline with Tween-80
[6] = dose: 60.0 mg/kg/injection, schedule: Q01DX005 (ip), vehicle: saline with Tween-80
[7] = dose: 120.0 mg/kg/injection, schedule: Q01DX005 (ip), vehicle: saline with Tween-80
[8] = dose: 240.0 mg/kg/injection, schedule: Q01DX005 (ip), vehicle: saline with Tween-80
[9] = dose: 50.0 mg/kg/injection, schedule: Q01DX009 (ip), vehicle: saline with Tween-80
[10] = dose: 100.0 mg/kg/injection, schedule: Q01DX009 (ip), vehicle: saline with Tween-80
[11] = dose: 25.0 mg/kg/injection, schedule: Q01DX009 (ip), vehicle: saline with Tween-80
[12] = dose: 60.0 mg/kg/injection, schedule: Q01DX005 (ip), vehicle: Klucel (hydroxypropylcellulose) (HPC)
[13] = dose: 120.0 mg/kg/injection, schedule: Q01DX005 (ip), vehicle: Klucel (hydroxypropylcellulose) (HPC)
[14] = dose: 240.0 mg/kg/injection, schedule: Q01DX005 (ip), vehicle: Klucel (hydroxypropylcellulose) (HPC)
[15] = dose: 6.25 mg/kg/injection, schedule: Q01DX009 (ip), vehicle: saline with Tween-80
[16] = dose: 12.5 mg/kg/injection, schedule: Q01DX009 (ip), vehicle: saline with Tween-80

Measured: T/C

C=C1C(=O)C23CC[C@H]4C(C)(CCC[C@]4(C)C(=O)O)[C@@H]2CCC1C3 (stereo partly drawn)
inactive: dose: 3.75 mg/kg/injection, schedule: Q01DX005 (ip), vehicle: Klucel (hydroxypropylcellulose) (HPC) 86 % of control | dose: 7.5 mg/kg/injection, schedule: Q01DX005 (ip), vehicle: Klucel (hydroxypropylcellulose) (HPC) 91 % of control | dose: 15.0 mg/kg/injection, schedule: Q01DX005 (ip), vehicle: Klucel (hydroxypropylcellulose) (HPC) 87 % of control | dose: 30.0 mg/kg/injection, schedule: Q01DX005 (ip), vehicle: Klucel (hydroxypropylcellulose) (HPC) 98 % of control

CC(C)=NOC1CCCCC1O (stereo not drawn)
inactive: [1] 96 % of control | [2] 99 % of control | dose: 400.0 mg/kg/injection, schedule: Q04DX003 (ip), vehicle: saline with Tween-80 106 % of control

CCCCCCC1(/C=C\c2ccc(Cl)cc2Cl)OCCO1
inactive: dose: 50.0 mg/kg/injection, schedule: Q01DX009 (ip), vehicle: Klucel (hydroxypropylcellulose) (HPC) 103 % of control | dose: 100.0 mg/kg/injection, schedule: Q01DX009 (ip), vehicle: Klucel (hydroxypropylcellulose) (HPC) 110 % of control | [3] 101 % of control

CNC(=O)Nc1ccnc2ccc3c(ncn3C(=O)NC)c12
inactive: [4] 104 % of control | [5] 98 % of control

C/C(=N\NC(=S)N1CCCCCC1)c1cccc(C)n1
inactive: dose: 12.5 mg/kg/injection, schedule: Q01DX005 (ip), vehicle: saline with Tween-80 110 % of control | dose: 25.0 mg/kg/injection, schedule: Q01DX005 (ip), vehicle: saline with Tween-80 109 % of control | dose: 50.0 mg/kg/injection, schedule: Q01DX005 (ip), vehicle: saline with Tween-80 120 % of control

COc1ccc(Cc2cc3c(cc2OC)OCO3)c(OC)c1
inactive: [6] 100 % of control | [7] 108 % of control | [8] 112 % of control

CC12COC(=O)CC1CCC1C2CCC2(C)C1CCC2(C)O (stereo not drawn)
inactive: [1] 95 % of control | [2] 104 % of control

CCCNC1=C(C)C(=O)C2=C(C1=O)[C@H](COC(N)=O)[C@]1(OC)[C@@H]3N[C@@H]3CN21
inactive: dose: 6.25 mg/kg/injection, schedule: Q01DX009 (ip), vehicle: saline sonified 86 % of control | dose: 12.5 mg/kg/injection, schedule: Q04DX003 (ip), vehicle: saline with Tween-80 86 % of control

Nc1nc2c(c(-c3nc(N)nc4c3CCC4)n1)CCC2
inactive: dose: 60.0 mg/kg/injection, schedule: Q01DX005 (ip), vehicle: saline 98 % of control | dose: 120.0 mg/kg/injection, schedule: Q01DX005 (ip), vehicle: saline 106 % of control | dose: 240.0 mg/kg/injection, schedule: Q01DX005 (ip), vehicle: saline 97 % of control

Cc1nc(Cl)c(C#N)nc1C
inactive: [9] 100 % of control | dose: 50.0 mg/kg/injection, schedule: Q04DX003 (ip), vehicle: saline with Tween-80 110 % of control | [10] 100 % of control | [1] 100 % of control | dose: 200.0 mg/kg/injection, schedule: Q01DX009 (ip), vehicle: saline with Tween-80 100 % of control | [2] 100 % of control

C=C(C)C1C2CC3(C)C4(CO4)C4OC4C3(O)C1C(=O)O2 (stereo not drawn)
inactive: dose: 0.31 mg/kg/injection, schedule: Q01DX005 (ip), vehicle: Klucel (hydroxypropylcellulose) (HPC) 97 % of control | dose: 0.62 mg/kg/injection, schedule: Q01DX005 (ip), vehicle: Klucel (hydroxypropylcellulose) (HPC) 100 % of control | dose: 1.25 mg/kg/injection, schedule: Q01DX005 (ip), vehicle: Klucel (hydroxypropylcellulose) (HPC) 102 % of control

CC(C)(C)N(OC(=O)c1ccc([N+](=O)[O-])cc1)c1ccccc1
inactive: [11] 98 % of control | [9] 97 % of control | [10] 95 % of control

C=C1CC2C3CCC=C3C(c3ccc(OC)cc3)C2C1=O (stereo not drawn)
inactive: dose: 25.0 mg/kg/injection, schedule: Q01DX001 (ip), vehicle: Klucel (hydroxypropylcellulose) (HPC) 112 % of control | dose: 50.0 mg/kg/injection, schedule: Q01DX001 (ip), vehicle: Klucel (hydroxypropylcellulose) (HPC) 109 % of control | dose: 100.0 mg/kg/injection, schedule: Q01DX001 (ip), vehicle: Klucel (hydroxypropylcellulose) (HPC) 107 % of control and 111 % of control | dose: 200.0 mg/kg/injection, schedule: Q01DX001 (ip), vehicle: Klucel (hydroxypropylcellulose) (HPC) 106 % of control

CC(=O)OCC1OC(S[As](C2CCCCC2)C2CCCCC2)C(OC(C)=O)C(OC(C)=O)C1OC(C)=O (stereo not drawn)
inactive: dose: 25.0 mg/kg/injection, schedule: Q04DX003 (ip), vehicle: Klucel (hydroxypropylcellulose) (HPC) 109 % of control | dose: 50.0 mg/kg/injection, schedule: Q04DX003 (ip), vehicle: Klucel (hydroxypropylcellulose) (HPC) 116 % of control

Cc1ccc(S(=O)(=O)C23N=NC(C)(C)C2C2CCC3C2)cc1 (stereo not drawn)
inactive: [12] 102 % of control | [13] 104 % of control | [14] 102 % of control

COc1cc(OC)c(C2CC(C)(O)Oc3cc4c(cc32)OCO4)c(OC)c1 (stereo not drawn)
inactive: [6] 91 % of control | [7] 86 % of control | [8] 88 % of control

NC(=O)NC1CC2CCC1C2 (stereo not drawn)
inactive: dose: 50.0 mg/kg/injection, schedule: Q01DX005 (ip), vehicle: saline 101 % of control | dose: 100.0 mg/kg/injection, schedule: Q01DX005 (ip), vehicle: saline 101 % of control | dose: 200.0 mg/kg/injection, schedule: Q01DX005 (ip), vehicle: saline 105 % of control

CC1CS(=O)(=O)O1 (stereo not drawn)
inactive: [12] 104 % of control | [13] 103 % of control | [14] 110 % of control

Cc1ccccc1-c1cc2ccccc2c(N)n1
inactive: [15] 118 % of control | [16] 99 % of control

OC1CCCCC1C1CCCCC1O (stereo not drawn)
inactive: [4] 105 % of control | [5] 99 % of control | dose: 400.0 mg/kg/injection, schedule: Q01DX001 (ip), vehicle: saline with Tween-80 104 % of control

CC1(C)CC(C)(OC(=O)c2ccccc2Cl)N=N1 (stereo not drawn)
inactive: dose: 11.0 mg/kg/injection, schedule: Q01DX009 (ip), vehicle: other 97 % of control | dose: 12.5 mg/kg/injection, schedule: Q01DX009 (ip), vehicle: other 107 % of control | dose: 16.5 mg/kg/injection, schedule: Q01DX009 (ip), vehicle: other 97 % of control | dose: 25.0 mg/kg/injection, schedule: Q01DX009 (ip), vehicle: other 108 % of control | dose: 37.5 mg/kg/injection, schedule: Q01DX009 (ip), vehicle: other 116 % of control | dose: 50.0 mg/kg/injection, schedule: Q01DX009 (ip), vehicle: other 103 % of control | dose: 100.0 mg/kg/injection, schedule: Q01DX009 (ip), vehicle: other 112 % of control | dose: 200.0 mg/kg/injection, schedule: Q01DX009 (ip), vehicle: other 116 % of control

O=C(OC(C(F)(F)F)C(F)(F)F)c1ccccc1
inactive: dose: 100.0 mg/kg/injection, schedule: Q04DX003 (ip), vehicle: Klucel (hydroxypropylcellulose) (HPC) 105 % of control | dose: 200.0 mg/kg/injection, schedule: Q04DX003 (ip), vehicle: Klucel (hydroxypropylcellulose) (HPC) 101 % of control | dose: 400.0 mg/kg/injection, schedule: Q04DX003 (ip), vehicle: Klucel (hydroxypropylcellulose) (HPC) 109 % of control

CCOC(=O)c1nc(OCC)nc(OCC)c1C#CCO
inactive: dose: 12.5 mg/kg/injection, schedule: Q01DX009 (ip), vehicle: distilled water + Tween-80 95 % of control | dose: 25.0 mg/kg/injection, schedule: Q01DX009 (ip), vehicle: distilled water + Tween-80 93 % of control | dose: 50.0 mg/kg/injection, schedule: Q01DX009 (ip), vehicle: distilled water + Tween-80 102 % of control | dose: 100.0 mg/kg/injection, schedule: Q01DX009 (ip), vehicle: distilled water + Tween-80 98 % of control

CC1CC(=O)OC2CC(C)(C)CC(=O)C12 (stereo not drawn)
inactive: dose: 100.0 mg/kg/injection, schedule: Q01DX009 (ip), vehicle: saline 100 % of control | dose: 200.0 mg/kg/injection, schedule: Q01DX009 (ip), vehicle: saline 100 % of control | dose: 400.0 mg/kg/injection, schedule: Q01DX009 (ip), vehicle: saline 109 % of control

Cc1c(O)c2c(c(O)c1Cc1ccc(C#N)cc1)C(=O)c1ccccc1C2=O
inactive: [15] 94 % of control | [16] 91 % of control | [11] 90 % of control | [9] 91 % of control | [3] 89 % of control
